Laboratory results: patent US12612410B2 (CHILDREN'S HOSPITAL MEDICAL CENTER, priority 2020, dated 2026)
pKd: −log10 of the molar value.

What follows are molecules tested against T1, FLT3 ITD, D835V (Homo sapiens, UniProt P36888, D835V, form not given) (assay: DiscoverX KINOMEscan competition binding, FLT3 ITD, D835V).
T1 construct: fused on or other part: DNA tag for qPCR detection (T7 phage fusion or DNA-tagged protein from HEK-293 cells)
T1 sequence (P36888 1-993 D835V): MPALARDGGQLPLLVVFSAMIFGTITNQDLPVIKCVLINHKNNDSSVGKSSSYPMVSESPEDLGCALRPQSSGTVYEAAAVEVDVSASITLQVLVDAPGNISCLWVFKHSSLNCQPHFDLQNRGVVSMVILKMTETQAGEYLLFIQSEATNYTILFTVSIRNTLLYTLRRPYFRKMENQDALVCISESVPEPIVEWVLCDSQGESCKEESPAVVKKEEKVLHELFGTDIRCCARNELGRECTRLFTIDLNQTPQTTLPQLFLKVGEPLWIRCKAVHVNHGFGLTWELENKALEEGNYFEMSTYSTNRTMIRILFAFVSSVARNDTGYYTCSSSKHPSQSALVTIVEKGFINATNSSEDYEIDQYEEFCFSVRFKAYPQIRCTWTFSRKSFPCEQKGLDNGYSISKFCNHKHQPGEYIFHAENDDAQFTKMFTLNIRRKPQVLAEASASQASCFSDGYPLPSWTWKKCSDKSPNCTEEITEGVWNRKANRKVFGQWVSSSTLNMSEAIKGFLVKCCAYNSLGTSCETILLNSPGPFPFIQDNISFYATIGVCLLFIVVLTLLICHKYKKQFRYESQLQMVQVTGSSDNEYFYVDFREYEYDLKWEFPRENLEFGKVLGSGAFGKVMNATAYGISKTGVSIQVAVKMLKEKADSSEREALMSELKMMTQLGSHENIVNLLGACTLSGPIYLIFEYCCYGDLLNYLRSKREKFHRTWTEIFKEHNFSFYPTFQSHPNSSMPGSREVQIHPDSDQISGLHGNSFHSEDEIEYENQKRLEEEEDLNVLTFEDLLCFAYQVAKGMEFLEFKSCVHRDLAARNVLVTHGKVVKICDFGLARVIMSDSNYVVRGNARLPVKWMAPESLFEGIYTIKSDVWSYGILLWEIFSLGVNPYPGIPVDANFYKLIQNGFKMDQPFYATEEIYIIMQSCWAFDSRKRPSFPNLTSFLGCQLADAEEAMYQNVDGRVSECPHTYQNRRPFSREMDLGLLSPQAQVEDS
Text: Kinase binding data were obtained for various exemplary compounds prepared according to Examples 1-24 using the DiscoverX KINOMVIEscan® active site-directed competition binding site-directed assay protocol described below. […] As a result, the data report thermodynamic interaction affinities (Kd values), rather than IC50 values that are dependent on ATP concentrations. The assay uses a DNA-tagged version of the protein kinase, and an immobilized ligand bound to a solid support. Compounds that directly or indirectly prevent kinase binding to the immobilized ligand reduce the amount of kinase captured on the solid support, which is detected using an ultra-sensitive qPCR method. Affinity constants reported from the assay have been reported to be independent of the immobilized ligand used that is coupled to the solid support (See supplemental information in Fabian, M. A. et. al., (2005) Nat. Biotechnol. 23, 329-336; Wodicka, L. M. et. al., (2010) Chem. Biol. 17, 1241-1249.)
Kinase-tagged T7 phage strains were prepared in an E. coli host derived from the BL21 strain. E. coli were grown to log-phase and infected with T7 phage and incubated with shaking at 32° C. until lysis. The lysates were centrifuged and filtered to remove cell debris. The remaining kinases were produced in HEK-293 cells and subsequently tagged with DNA for qPCR detection. Streptavidin-coated magnetic beads were treated with biotinylated small molecule ligands for 30 minutes at room temperature to generate affinity resins for kinase assays. The liganded beads were blocked with excess biotin and washed with blocking buffer (SeaBlock (Pierce), 1% BSA, 0.05% Tween 20, 1 mM DTT) to remove unbound ligand and to reduce non-specific binding. Binding reactions were assembled by combining kinases, liganded affinity beads, and test compounds in 1× binding buffer (20% SeaBlock, 0.17×PBS, 0.05% Tween 20, 6 mM DTT). Test compounds were prepared as 111× stocks in 100% DMSO. Kds were determined using an 11-point 3-fold compound dilution series with three DMSO control points. All compounds for Kd measurements are distributed by acoustic transfer (non-contact dispensing) in 100% DMSO. The compounds were then diluted directly into the assays such that the final concentration of DMSO was 0.9%. All reactions were performed in polypropylene 384-well plates. Each was a final volume of 0.02 mL. The assay plates were incubated at room temperature with shaking for 1 hour and the affinity beads were washed with wash buffer (1×PBS, 0.05% Tween 20). The beads were then re-suspended in elution buffer (1×PBS, 0.05% Tween 20, 0.5 μM nonbiotinylated affinity ligand) and incubated at room temperature with shaking for 30 minutes. The kinase concentration in the eluates was measured by qPCR.
Binding constants (Kds) were calculated with a standard dose-response curve using the Hill equation. The Hill Slope was set to −1. Curves were fitted using a non-linear least square fit with the Levenberg-Marquardt algorithm.
For CC1(c2cn3c(-c4cccc(N[C@H]5CNC[C@@H]5F)n4)cnc3cn2)CC1 [Compound 1, N-((3S,4S)-4-fluoropyrrolidin-3-yl)-6-(6-(1-methylcyclopropyl)imidazo[1,2-a]pyrazin-3-yl)pyridin-2-amine], the pKd was 11.52.
CC1(c2cn3c(-c4cccc(N[C@@H]5CCNC5)n4)cnc3cn2)CC1 [Compound 3, (R)-6-(6-(1-methylcyclopropyl)imidazo[1,2-a]pyrazin-3-yl)-N-(pyrrolidin-3-yl)pyridin-2-amine] showed a pKd of 11.40.
Molecule CC1(c2cn3c(-c4cccc(N[C@H]5CNCC56CC6)n4)cnc3cn2)CC1 [Compound 5, (R)-N-(6-(6-(1-methylcyclopropyl)imidazo[1,2-a]pyrazin-3-yl)pyridin-2-yl)-5-azaspiro[2.4]heptan-7-amine] has a pKd of 11.30.
Work on FC(F)(F)C1(c2cn3c(-c4cccc(N[C@@H]5CCNC5)n4)cnc3cn2)CC1 [Compound 10, (R)-N-(pyrrolidin-3-yl)-6-(6-(1-(trifluoromethyl)cyclopropyl)imidazo[1,2-a]pyrazin-3-yl)pyridin-2-amine] yielded a pKd of 10.96.
Molecule FC(F)c1cn2c(-c3cccc(N[C@H]4CNC[C@@H]4F)n3)cnc2cn1 [Compound 16, 6-(6-(difluoromethyl)imidazo[1,2-a]pyrazin-3-yl)-N-((3S,4S)-4-fluoropyrrolidin-3-yl)pyridin-2-amine] has a pKd of 11.22.
With FC(F)c1cn2c(-c3cccc(N[C@H]4CNCC[C@@H]4F)n3)cnc2cn1 [Compound 25, 6-(6-(difluoromethyl)imidazo[1,2-a]pyrazin-3-yl)-N-((3S,4S)-4-fluoropiperidin-3-yl)pyridin-2-amine] the pKd was 11.05.
CC(C)(O)c1cn2c(-c3cccc(N[C@@H]4CCCNC4)n3)cnc2cn1 [Compound 30, (R)-2-(3-(6-(piperidin-3-ylamino)pyridin-2-yl)imidazo[1,2-a]pyrazin-6-yl)propan-2-ol] gave a pKd of 9.85.
Work on CC(C)(O)c1cn2c(-c3cccc(N[C@H]4CNCC[C@@H]4F)n3)cnc2cn1 [Compound 31, 2-(3-(6-(((3S,4S)-4-fluoropiperidin-3-yl)amino)pyridin-2-yl)imidazo[1,2-a]pyrazin-6-yl)propan-2-ol] yielded a pKd of 10.36.
With FC(F)(F)COc1cn2c(-c3cccc(N[C@@H]4CCNC4)n3)cnc2cn1 [Compound 38, (R)-N-(pyrrolidin-3-yl)-6-(6-(2,2,2-trifluoroethoxy)imidazo[1,2-a]pyrazin-3-yl)pyridin-2-amine] the pKd was 10.59.
F[C@H]1CNC[C@@H]1Nc1cccc(-c2cnc3cnc(C4CC4)cn23)n1 [Compound 50, 6-(6-cyclopropylimidazo[1,2-a]pyrazin-3-yl)-N-((3S,4S)-4-fluoropyrrolidin-3-yl)pyridin-2-amine] showed a pKd of 11.52.
Cn1cc(-c2cn3c(-c4cccc(N[C@H]5CNC[C@@H]5F)n4)cnc3cn2)cn1 [Compound 52, N-((3S,4S)-4-fluoropyrrolidin-3-yl)-6-(6-(1-methyl-1H-pyrazol-4-yl)imidazo[1,2-a]pyrazin-3-yl)pyridin-2-amine] showed a pKd of 11.52.
